Laboratory results reported in patent US20030153513A1, “Preventives or remedies for obesity or fatty liver” (priority 2000, published 2003).

Experiments:
Assay type in all cases: in vivo
[1] = test system: C57BL/6J mice; assay: Test Example 1: triglyceride level in liver tissue, normal mice, 12 weeks oral; details: oral administration for 12 weeks, 10 mg/kg/day, 4 h after final dose
Protocol: (§1) In the test example, each 10 of the male KKA^y/Ta Jcl mice and C57BL/6J mice aged 10 weeks were used as obesity model mice and non-obesity normal model mice, respectively. The compound of Preparation 1 was orally administered to the animals at 10 mg/kg/day for 12 weeks continuously, and the body weights of the animals were daily measured. Four hours after the final administration of the compound, the animals were sacrificed, and the levels of triglyceride in the liver tissues were determined.
(§2) The compound of Preparation 1 had been suspended in an aqueous solution of 5% gum arabic (Nakarai Chemcial, Lot. M5E5329) to provide a 0.1% suspension for use. As a control, only a vehicle (5% aqueous gum arabic solution) was administered as well, and the triglyceride level was also determined.

[2] = test system: KKA^y/Ta Jcl mice; assay: Test Example 1: body weight increase, obesity model mice, 12 weeks oral; details: 10 mg/kg/day oral, FIG. 1-B
Protocol: as §1, §2

[3] = test system: KKAy/Ta Jcl mice; assay: Test Example 2: triglyceride level in liver tissue, obesity model mice, 2 weeks
Protocol: In a similar way to Test Example 1, the male KKAy/Ta Jcl mice aged 10 weeks were orally administered with the compound of Preparation 1 at 10 mg/kg/day, and fed a diet containing 3% cholestyramine (corresponding to about 4 g/kg/day) for two weeks continuously, and the level of triglyceride in the liver tissue was determined (eight animals per group). Also, the control was administered with only a vehicle (5% aqueous gum arabic solution).

[4] = test system: KKA^y/Ta Jcl mice; assay: Test Example 1: triglyceride level in liver tissue, obesity model mice, 12 weeks oral; details: 10 mg/kg/day
Protocol: as §1, §2

[5] = test system: C57BL/6J mice; assay: Test Example 1: body weight increase, non-obesity normal mice, 12 weeks oral; details: non-obesity normal C57BL/6J mice, 10 mg/kg/day oral, FIG. 1-A
Protocol: as §1, §2

`CCC(CC)CC(=O)c1c(C(=O)OC)c(-c2ccc(OC)c(OC)c2)c2c(OC)c(OC)c(OC)cc2c1O` [Compound of Prep. 1, Methyl 1-(3,4-dimethoxyphenyl)-3-(3-ethylvalelyl)-4-hydroxy-6,7,8-trimethoxy-2-naphthoate] was tested, and the “triglyceride (liver tissue)” value [1] was 13.2 ± 1.2 mg/g, the “inhibition of weight gain” value [2] was “significant inhibition of weight gain” and the “triglyceride level in the liver tissue compared to the control (in words)” value ([3]; 2 weeks, as shown in Table 2) was “significant decrease”. The “triglyceride (liver tissue)” value ([3]; administration for 2 weeks, Prep. 1 10 mg/kg/day oral, cholestyramine 3% in diet (about 4 g/kg/day)) was 49.2 ± 7.7 mg/g, the “triglyceride level in the liver tissue compared to the control (in words)” value ([4]; 12 weeks oral, as shown in Table 1) was “significant decrease” and the “triglyceride (liver tissue)” value ([4]; KKA^y mice, oral administration for 12 weeks, 4 h after final dose) was 74.7 ± 7.4 mg/g. For the same molecule, the “rate of increase in body weight compared with the control” value [5] was “no significant difference”.
